TGI data for 24 compounds are collected here from PubChem BioAssay (NCI).

Among the test systems are SN12C renal; HL-60(TB) leukemia; EKVX NSCLC; HT29 colon; MOLT-4 leukemia; RXF 393 renal; CAKI-1 renal; DU-145 prostate; NCI/ADR-RES ovarian; MALME-3M melanoma; T-47D breast.
Common to all, as to experiment: NCI anticancer screen, dose series, 48 h

Each structure is given as a SMILES string.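 Five compound concentrations were applied to cells in 96-well plates for 48 hours; endpoints were derived by simple linear interpolation of the resulting dose-response curve. TGI denotes the concentration required for complete inhibition of growth.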 Where only a bound is given, the exact number is not on record here.

As to `CC(C)NCCNC(=O)c1ccccc1Nc1c(Cl)cccc1Cl`, the TGI in the experiment with SN12C renal came out at 26.8 µM; in the experiment with HL-60(TB) leukemia, 24.8 µM; with EKVX NSCLC it was 28.1 µM; in the experiment on HT29 colon it was 17.5 µM; in the experiment with MOLT-4 leukemia it was 27.3 µM; in the experiment with RXF 393 renal, 17 µM.
For `NC(=O)CC[C@H]1C(=O)N=C(N)N1C(=O)OCc1ccccc1`, the TGI in the experiment with CAKI-1 renal, in the experiment on DU-145 prostate, in the experiment with NCI/ADR-RES ovarian, in the experiment with SN12C renal, in the experiment on HL-60(TB) leukemia and with MALME-3M melanoma was more than 100 µM each time. Moreover, the TGI with EKVX NSCLC, in the experiment on HT29 colon, in the experiment with MOLT-4 leukemia and in the experiment with RXF 393 renal was more than 100 µM in each case.
In the case of `N#CC(NNC(=O)c1ccccc1O)c1ccc(O)cc1` (stereo unspecified), the TGI in the experiment on CAKI-1 renal is 98.9 µM; in the experiment on SN12C renal, more than 100 µM; with HL-60(TB) leukemia it was 74.9 µM; in the experiment on MALME-3M melanoma it was more than 100 µM; with HT29 colon, more than 100 µM; in the experiment on MOLT-4 leukemia, more than 100 µM. This compound also gave a TGI in the experiment with RXF 393 renal of 12.2 µM.
Regarding `Nc1cc2ncnc(Nc3cccc(Br)c3)c2cn1`, the TGI in the experiment with CAKI-1 renal, in the experiment on NCI/ADR-RES ovarian, with SN12C renal, with HL-60(TB) leukemia, with MALME-3M melanoma and in the experiment on T-47D breast was more than 100 µM throughout. In addition, the TGI with HT29 colon, in the experiment on MOLT-4 leukemia and with RXF 393 renal was more than 100 µM each time.
With `COc1ccc(Nc2nc(NNC(=O)Cc3ccccc3)nc(NNC(=O)c3ccncc3)n2)cc1`, the TGI in the experiment on CAKI-1 renal, in the experiment on DU-145 prostate, in the experiment with NCI/ADR-RES ovarian, in the experiment with SN12C renal, in the experiment on MALME-3M melanoma and in the experiment with EKVX NSCLC was more than 10 µM throughout. The TGI in the experiment on T-47D breast, in the experiment on HT29 colon and in the experiment on MOLT-4 leukemia was more than 10 µM in each case.
With `Oc1ccc(O)c(Sc2nnc(CCCCCCCCc3nnc(Sc4cc(O)ccc4O)o3)o2)c1`, the TGI was 69.7 µM with CAKI-1 renal; more than 100 µM in the experiment on DU-145 prostate; more than 100 µM in the experiment on NCI/ADR-RES ovarian; more than 100 µM in the experiment with SN12C renal; more than 100 µM in the experiment on MALME-3M melanoma; more than 100 µM in the experiment with EKVX NSCLC. For the same compound, the TGI in the experiment on HT29 colon and in the experiment with MOLT-4 leukemia was more than 100 µM throughout.
For the compound `CCCCNC(=S)Nc1nc(C(=O)NNC(=S)NCc2ccccc2)cs1`, the TGI is 90.1 µM with CAKI-1 renal; more than 100 µM in the experiment with DU-145 prostate; more than 100 µM in the experiment with NCI/ADR-RES ovarian; more than 100 µM with SN12C renal; more than 100 µM in the experiment with MALME-3M melanoma; more than 100 µM in the experiment with EKVX NSCLC. Moreover, the TGI in the experiment with T-47D breast was 59.3 µM; in the experiment with HT29 colon it was more than 100 µM; in the experiment on MOLT-4 leukemia it was more than 100 µM.
`Cn1cnc(/C=C/C#N)c1`: the TGI in the experiment with CAKI-1 renal, in the experiment with NCI/ADR-RES ovarian, in the experiment on SN12C renal, in the experiment with MALME-3M melanoma, with EKVX NSCLC and in the experiment with HT29 colon was more than 100 µM each time. Further, the TGI with MOLT-4 leukemia and in the experiment on RXF 393 renal was more than 100 µM in each case.
`COC(C/C=C\C=C\CC/C=C/CC(C)/C=C/C(=C\C(=O)O)CC(=O)O)/C(C)=C\C=C(/C)C(=O)O` (stereo unspecified): the TGI in the experiment on CAKI-1 renal, with DU-145 prostate, in the experiment on SN12C renal, in the experiment on MALME-3M melanoma, in the experiment on EKVX NSCLC and in the experiment on HT29 colon was more than 100 µM each time. In the experiment with MOLT-4 leukemia, this compound returned a TGI of more than 100 µM.
In the case of `O=c1cnc2cc3ccccc3cc2[nH]1`, the TGI in the experiment with CAKI-1 renal, in the experiment with NCI/ADR-RES ovarian, in the experiment with SN12C renal, in the experiment on HL-60(TB) leukemia, with MALME-3M melanoma and in the experiment with EKVX NSCLC was more than 100 µM in each case. Further, the TGI in the experiment with HT29 colon, in the experiment with MOLT-4 leukemia and in the experiment with RXF 393 renal was more than 100 µM each time.
Turning to `COc1ccccc1NC(=O)CSC(N)=O`, the TGI in the experiment with CAKI-1 renal, in the experiment with SN12C renal, in the experiment on HL-60(TB) leukemia, in the experiment with MALME-3M melanoma, in the experiment on EKVX NSCLC and in the experiment on HT29 colon was more than 100 µM throughout.
`Cc1ccc(Cl)c2c(=O)cc(-c3ccccc3)[nH]c12`: the TGI in the experiment on CAKI-1 renal, in the experiment with SN12C renal, in the experiment with HL-60(TB) leukemia, in the experiment with MALME-3M melanoma, with HT29 colon and in the experiment with MOLT-4 leukemia was more than 100 µM each time. In the experiment with RXF 393 renal, this compound returned a TGI of more than 100 µM.
For the compound `CCCCCCCCCCC[N+]1(Cc2ccccc2)CC2CCN(Cc3ccccc3)CC2C1` (stereo unspecified), the TGI in the experiment on CAKI-1 renal was found to be 2.74 µM; in the experiment with DU-145 prostate, 1.51 µM; in the experiment with SN12C renal it was 1.5 µM; in the experiment with HL-60(TB) leukemia it was 0.277 µM; in the experiment on MALME-3M melanoma, 1.26 µM; in the experiment on EKVX NSCLC it was 1.37 µM. The TGI with T-47D breast is 1.37 µM; in the experiment with HT29 colon, 1.71 µM; in the experiment on MOLT-4 leukemia it was 1.25 µM; with RXF 393 renal, 1.95 µM.
Take `Cc1cn([C@@H]2C[C@](C)(CO)N(C)O2)c(=O)[nH]c1=O`: the TGI in the experiment on CAKI-1 renal, with DU-145 prostate, with NCI/ADR-RES ovarian, with SN12C renal, in the experiment on HL-60(TB) leukemia and in the experiment on MALME-3M melanoma was more than 100 µM each time. For the same compound, the TGI in the experiment on EKVX NSCLC, in the experiment on HT29 colon and in the experiment on RXF 393 renal was more than 100 µM in each case.
`CCn1c(O)c(C(=O)NC(C)c2ccc([N+](=O)[O-])cc2)c(=O)n(CC)c1=S` (stereo unspecified): the TGI with CAKI-1 renal was 10.1 µM; in the experiment on DU-145 prostate, 8.98 µM; in the experiment with SN12C renal, 15 µM; with HL-60(TB) leukemia it was 5.11 µM; with EKVX NSCLC it was 12.7 µM; with T-47D breast, 14.2 µM. In addition, the TGI in the experiment with HT29 colon was found to be 5.17 µM; in the experiment on MOLT-4 leukemia, 5.52 µM; with RXF 393 renal, 12 µM.
For the compound `COc1ccc(C[C@H]2COC(=O)[C@@H]2Cc2ccccc2)cc1OC`, the TGI in the experiment with DU-145 prostate, in the experiment on NCI/ADR-RES ovarian, in the experiment on SN12C renal, with MALME-3M melanoma, in the experiment on EKVX NSCLC and in the experiment on T-47D breast was more than 100 µM in each case. Also, the TGI in the experiment on HT29 colon and in the experiment with MOLT-4 leukemia was more than 100 µM throughout.
Turning to `O=c1oc2ccccc2c(O)c1C(c1ccc(O)cc1)c1c(O)c2ccccc2oc1=O`, the TGI in the experiment on CAKI-1 renal, in the experiment on DU-145 prostate, in the experiment on NCI/ADR-RES ovarian, in the experiment with SN12C renal, in the experiment on MALME-3M melanoma and in the experiment on EKVX NSCLC was more than 100 µM each time. Besides, the TGI in the experiment on T-47D breast and in the experiment with HT29 colon was more than 100 µM each time.
With `CCOC(=O)/C(C1=N[C@H](C(=O)OCC)CS1)=C(\O)c1ccccc1`, the TGI in the experiment on CAKI-1 renal, with SN12C renal, with HL-60(TB) leukemia, in the experiment with MALME-3M melanoma, in the experiment on EKVX NSCLC and in the experiment on HT29 colon was more than 100 µM each time. Further, the TGI in the experiment with MOLT-4 leukemia and with RXF 393 renal was more than 100 µM each time.
On to `COc1ccc2c3c([nH]c2c1)-c1nc2ccccc2c(=O)n1CC3`, for which the TGI in the experiment on NCI/ADR-RES ovarian, in the experiment on SN12C renal, with HL-60(TB) leukemia, in the experiment on EKVX NSCLC, in the experiment with T-47D breast and with MOLT-4 leukemia was more than 25 µM in each case.
Take `CC(=O)CCCCCCCCCCCC[C@@H]1CC[C@H](C)[C@H](O)N1`: the TGI in the experiment on CAKI-1 renal, with HL-60(TB) leukemia, in the experiment on MALME-3M melanoma, in the experiment with EKVX NSCLC, with HT29 colon and with MOLT-4 leukemia was more than 100 µM in each case. The TGI with RXF 393 renal was more than 100 µM.
In the case of `S=c1oc(CCCCCCCCc2nn(CNc3ccc(Cl)cc3)c(=S)o2)nn1CNc1ccc(Cl)cc1`, the TGI in the experiment with CAKI-1 renal, in the experiment with DU-145 prostate, in the experiment with NCI/ADR-RES ovarian, with SN12C renal, in the experiment with MALME-3M melanoma and with EKVX NSCLC was more than 100 µM throughout. The TGI with HT29 colon, in the experiment with MOLT-4 leukemia and in the experiment on RXF 393 renal was more than 100 µM in each case.
Turning to `O=C1c2ccccc2C2(c3ccc(Cl)cc3)N[C@@H]3CCCC[C@@H]3N12` (stereo partly specified), the TGI with CAKI-1 renal, in the experiment with DU-145 prostate, in the experiment with SN12C renal, with HL-60(TB) leukemia, in the experiment on EKVX NSCLC and in the experiment with T-47D breast was more than 100 µM in each case. Moreover, the TGI with MOLT-4 leukemia and with RXF 393 renal was more than 100 µM each time.
Regarding `Cc1cc(=O)[nH]c(NN2C(Cl)C(=O)C2c2ccco2)n1` (stereo unspecified), the TGI was 77 µM in the experiment with SN12C renal; 39.3 µM with HL-60(TB) leukemia; more than 100 µM in the experiment on EKVX NSCLC; more than 100 µM in the experiment with HT29 colon; more than 100 µM in the experiment with MOLT-4 leukemia; more than 100 µM in the experiment on RXF 393 renal.
Take `Cc1cccc(=O)c([O-])c1.Cc1cccc(=O)c([O-])c1.Cc1cccc(=O)c([O-])c1.Cc1cccc(=O)c([O-])c1.[Th+4]`: the TGI with CAKI-1 renal was 86.6 µM; with SN12C renal, more than 100 µM; in the experiment on HL-60(TB) leukemia, 4.18 µM; in the experiment with MALME-3M melanoma, more than 100 µM; in the experiment with EKVX NSCLC, more than 89.1 µM; in the experiment with HT29 colon it was more than 49.4 µM. In addition, the figures for the TGI in the experiment on MOLT-4 leukemia and with RXF 393 renal were more than 27 µM and more than 100 µM, respectively.
